Data set [1] deals with E. coli 541-15. Format: cell-based.
Method: To perform a small-molecule-based biological assay in the MVM^2 platform, four main steps to load the reagents are followed. Step-i involves loading a suspension of the biological species (often with a fluorescent chemical indicator) into the MVM^2 platform so that it is uniformly distributed throughout (see FIG. 6C(i) and FIGS. 11A-D for more details; this step mainly takes ˜3-5 min). In step-ii, small-molecule solutions at C0, 0.1 C0, and 0.01 C0 concentrations are loaded into the high, medium, and low positive main-channels, respectively, which diffuse into the corresponding microchambers through the connected side-channels (see FIG. 6C(ii) and FIGS. 12A-D for more details; this step mainly takes as equal as the small-molecule loading time).
Resazurin (5 wt %) was also added to the bacterial suspension to allow monitoring of the bacterial cell metabolism through an irreversible resazurin-resorufin enzymatic reduction reaction (i.e., with increasing bacterial growth, the higher resazurin reduction results in greater fluorescent intensity).
To further confirm these findings based on the bacterial cell metabolism obtained from resazurin reduction, the red fluorescent intensities were correlated with the green fluorescence directly associated with the GFP-labeled bacterial growth in the corresponding microchambers (FIG. 9A and FIG. 9B). […] Moreover, the gold standard broth microdilution technique (measuring the bacterial cell density—OD600—vs. the incubation time) was used to validate the MVM^2 microfluidic device functionality (FIG. 9E).
Similarly, bacterial cell metabolism and growth using the resazurin reduction assay was probed and changes in the number of GFP-labeled bacteria during the assay was monitored, as shown in FIGS. 29A-B and FIGS. 30A-B, respectively.
The test system of data set [2] is E. coli 541-15. Description: Gold standard broth microdilution test (OD600 growth curves). The format is cell-based. The method, then: Bacteria culture medium, strains, growth, and broth microdilution test. Non-selective Mueller-Hinton (“MET”) culture medium was used for all bacterial culture. In detail, a colony of bacteria pre-cultured on an LB agar plate (Corning, NY) was taken from a freshly streaked plate and suspended into 3 mL of MEI broth, and cultured at 37° C. overnight (˜12 h). The concentration of bacterial suspension was adjusted using a UV-Vis spectrophotometer (NanoDrop, Thermo-Fisher; Wilmington, DE). To do this, the overnight culture medium was diluted by 10-fold serial dilutions in non-selective MEI culture medium to find the appropriate final concentration (1×10^6 CFU/mL) for the antimicrobial susceptibility testing assay.
The gold standard broth microdilution test was performed by preparing the antibiotic solutions at their final concentrations from a stock solution of each examined antibiotic. A fresh 200 μL volume of each antibiotic solution (prepared in MEI culture medium) was pipetted into each microwell of a 96 MicroWell plate. […] Standardized growth curve analysis was performed using a Bioscreen C automated plate reader (Growth Curves USA, NJ) by measuring OD600. […]
(In general: In broth dilution the organism is exposed to a series of concentrations in liquid medium.)

For a further data set, the system named is E. coli LF82. Description: MVM2 antimicrobial R/S profile, Crohn's disease clinical isolate. The format is cell-based. As to conditions: MVM2 platform, 0.1-100 μg/mL, FIG. 9F.
The conditions of data set [3]: cited from earlier work.
The subject of data set [4] is yrKHK S. cerevisiae yeast strain (DBY12549). Format: cell-based, Saccharomyces cerevisiae. The following applies: MVM2 platform. The method, then:
Yeast culture medium, strains, and growth. Yeast cell growth and standard laboratory manipulations were performed as described (Guthrie and Fink, “Guide to Yeast Genetics and Molecular and Cellular Biology,” Methods in Enzymol. Part C 351 Gulf Professional Publishing (2002), which is hereby incorporated by reference in its entirety). All media used was either minimal medium (YNB; 0.67% yeast nitrogen base without amino acids plus 2% indicated carbon sources) or rich medium (YP; 2% bacto peptone, 1% yeast extract, 2% indicated carbon sources). Additionally, for fluorescence microscopy, low-fluorescence medium was used (standard minimal medium with 2% glucose, except YNB is prepared without riboflavin or folic acid to reduce background fluorescence) (Sheff and Thorn, “Optimized Cassettes for Fluorescent Protein Tagging in Saccharomyces cerevisiae,” Yeast 21:661-670 (2004), which is hereby incorporated by reference in its entirety). The yeast strains used in this study were DBY12000 and DBY12549. DBY12000 is a wild-type yeast strain (i.e., WT) with a genotype of MATa prototrophic HAP1^+ derivative of FY4. DBY12549 or yrKHK is the mutant of the wild-type yeast strain, which is sensitive to fructose and has a genotype of MATa HAP1^+ can1Δ::TDH3pr-yrKHK.
Then, as an example, the platform was used to study recessive human metabolic diseases, specifically measuring sugar-phosphate toxicity. […]. The data obtained using the MVM^2 platform precisely pinpointed the binary ‘Yes/No’ sensitivity response of the yrKHK strain to fructose (Yes) and glucose (No), as shown in FIGS. 35A-C and FIGS. 36A-C, respectively.
In this case, the functionality and validity of the MVM^2 platform was used to test for these known “eukaryote cells/sugars” pairs. Consequently, sugars (fructose and glucose) were chosen as the small molecules to show the feasibility of testing small molecules on eukaryotic cells in the MVM^2 platform. A wild-type S. cerevisiae, DBY12000, yeast strain (namely, WT) and its genetically modified DBY12549 mutant (called yrKHK) were chosen.. […]

Data set [5] has as its system wild-type S. cerevisiae strain (DBY12000). Description: Sugar test in MVM2 platform, 10 h yeast culture. Format: cell-based, Saccharomyces cerevisiae. The following applies: 0.007-7%. On the procedure:
Yeast culture medium, strains, and growth. Yeast cell growth and standard laboratory manipulations were performed as described (Guthrie and Fink, “Guide to Yeast Genetics and Molecular and Cellular Biology,” Methods in Enzymol. Part C 351 Gulf Professional Publishing (2002), which is hereby incorporated by reference in its entirety). All media used was either minimal medium (YNB; 0.67% yeast nitrogen base without amino acids plus 2% indicated carbon sources) or rich medium (YP; 2% bacto peptone, 1% yeast extract, 2% indicated carbon sources). Additionally, for fluorescence microscopy, low-fluorescence medium was used (standard minimal medium with 2% glucose, except YNB is prepared without riboflavin or folic acid to reduce background fluorescence) (Sheff and Thorn, “Optimized Cassettes for Fluorescent Protein Tagging in Saccharomyces cerevisiae,” Yeast 21:661-670 (2004), which is hereby incorporated by reference in its entirety). The yeast strains used in this study were DBY12000 and DBY12549. DBY12000 is a wild-type yeast strain (i.e., WT) with a genotype of MATa prototrophic HAP1^+ derivative of FY4. […]
Wild-type vs. Glucose (outcome: not sensitive): In FIGS. 37A-D and FIG. 38, the WT yeast strain exposed with glucose and fructose, respectively. The yeast growth was monitored for any “yeast/sugar” pair within 10 h culture at two time points (t=0 and 10 h). […]

The next data set has as its system yrKHK strain. The following applies: reported elsewhere; cited from earlier work.
Another data set has as its system WT strain. As to conditions: reported elsewhere; cited from earlier work.
Data set [6] relates to E. coli, S. aureus, S. uberis, and K. pneumoniae. The data set is described as follows: MVM2 antimicrobial R/S profile, bovine mastitis clinical isolates. The format is cell-based. The following applies: MVM2 platform, FIG. 32. From the text:
Bovine with mastitis disease was also used to test the MVM^2 platform for deciphering their antimicrobial resistant/susceptibility profile. These antibiotics were chosen to investigate the most common and important antibiotics' mechanisms of action, including the disruption of bacterial cell wall and membrane synthesis, binding to RNA/DNA and interrupting nucleic acid replication, and inhibition of protein synthesis by binding to ribosome. FIG. 32 contains the following information: (i) the type of bacteria and tested antibiotic can be found at the left and right sides, respectively; (ii) each row includes 37 squares, as labeled at the top and have been categorized in 4 different categories—first square representing the microchamber as negative control (labeled with “N”), and every next twelve squares as respectively representing low, medium, and high positive ranges of antibiotic concentrations; (iii) the low, medium, and high ranges are included the concentration ranges of 0.1-1, 1-10, and 10-100 μg/mL; (iv) there are three types of squares: dark red, dark pink or light pink. If bacteria is susceptible to a specific antibiotic (e.g., E. coli/cefuroxime pair, see FIG. 32), below MIC (shown by dark pink color), bacteria can survive and grow causing more resazurin reduction (shown by dark red). At concentrations greater than the MIC, the bacterial growth stopped as shown by light pink color. The dark pink squares also show the microchambers which antimicrobial susceptibility was monitored at different trials. […].

For the next data set, the system named is E. coli. The data set is described as follows: MVM2 antimicrobial R/S profile, bovine mastitis E. coli isolate. The following applies: MVM2 platform, 0.1-100 μg/mL, FIG. 32. Format: cell-based. An excerpt:
Bovine with mastitis disease was also used to test the MVM^2 platform for deciphering their antimicrobial resistant/susceptibility profile. These antibiotics were chosen to investigate the most common and important antibiotics' mechanisms of action, including the disruption of bacterial cell wall and membrane synthesis, binding to RNA/DNA and interrupting nucleic acid replication, and inhibition of protein synthesis by binding to ribosome. FIG. 32 contains the following information: (i) the type of bacteria and tested antibiotic can be found at the left and right sides, respectively; (ii) each row includes 37 squares, as labeled at the top and have been categorized in 4 different categories—first square representing the microchamber as negative control (labeled with “N”), and every next twelve squares as respectively representing low, medium, and high positive ranges of antibiotic concentrations; (iii) the low, medium, and high ranges are included the concentration ranges of 0.1-1, 1-10, and 10-100 μg/mL; (iv) there are three types of squares: dark red, dark pink or light pink. […] The dark pink squares also show the microchambers which antimicrobial susceptibility was monitored at different trials. […]

Data set [7] has as its system E. coli LF82, E. faecalis 44, and K. pneumoniae 578. Description: MVM2 antimicrobial R/S profile, isolates from ileal mucosa of human patients with Crohn's disease. The format is cell-based. As to conditions: MVM2 platform, FIG. 9F.
Where [8] appears, read: Table 1, antimicrobial agents/drugs.

Read-outs that look alike come from different tables or passages of the source.

Take `CC1(C)S[C@@H]2[C@H](NC(=O)[C@H](N)c3ccccc3)C(=O)N2[C@H]1C(=O)O` [D-(−)-α-Aminobenzylpenicillin]: the susceptibility/resistance outcome in the data set on E. coli 541-15 [1] (MVM2 platform, 0.1-100 μg/mL, 4 h) is “resistance”; in the data set with E. coli 541-15 [2], “resistance”; with E. coli LF82, “resistance”. For the same molecule, the Molar volume in [3] (setting [8]) was 239.3 ± 5.0 cm^3.
In the case of `O=C(CO)[C@@H](O)[C@H](O)[C@H](O)CO` [D-fructose], in data set [4] (0.007-7 wt %), the “binary Yes/No sensitivity response” value is recorded as “Yes”. In addition, the critical sensitivity concentration in data set [4] (10 h) came to 1.13 wt %. Moreover, the “concentration range within which yeast growth is stopped” value in [4] (microchambers R8-R12, 10 h) is listed as 0.7-1.113 wt %. In addition, the “outcome (sensitivity)” value in data set [5] is “not sensitive”. For the same molecule, the values for the sensitivity/resistance result in the data set on yrKHK strain and in the data set with WT strain were “sensitive” and “resistant”, respectively. Moreover, the Molar volume in data set [3] (Table 3, antifungal drugs and other molecules) is given as 113.3 cm^3.
Regarding `CCC[C@@H]1C[C@@H](C(=O)N[C@@H]([C@H]2O[C@H](SC)[C@H](O)[C@@H](O)[C@H]2O)[C@@H](C)O)N(C)C1` [Lincomycin], the “effectiveness among tested antibiotics” value in [6] is reported as “not effective”. The susceptibility/resistance outcome in the data set on E. coli is “resistance”. Also, the Molar volume in data set [3] (setting [8]) is 313.2 ± 5.0 cm^3.
Take `CCn1cc(C(=O)O)c(=O)c2ccc(C)nc21` [Nalidixic acid]: the “effectiveness among tested antibiotics” value in [6] is on record as “most effective”.
For `CO/N=C(\C(=O)N[C@@H]1C(=O)N2C(C(=O)O)=C(COC(N)=O)CS[C@H]12)c1ccco1` [cefuroxime], the “effectiveness among tested antibiotics” value in [6] is on record as “most effective”. Moreover, in the data set on E. coli, the susceptibility/resistance outcome is reported as “susceptible”.
For the molecule Gentamicin, the susceptibility/resistance outcome in the data set on E. coli 541-15 [1] and in the data set with E. coli LF82 was “susceptible” in each case. The MIC (usually the lowest concentration that inhibits growth of the organism) in the data set on E. coli 541-15 [1] (MVM2 platform, 4 h at 37° C., n=5) came to 2.82 ± 0.68 mg/L; with E. coli 541-15 [2] (n=5), 3 ± 2 mg/L. Moreover, the “effectiveness among tested antibiotics” value in [7] and in data set [6] was “most effective” each time.
Take “Reveromycin A [Reveromycin A (MFCD00912537)]”: the Molar volume in data set [3] (setting [8]) is reported as 542.2 ± 5.0 cm^3.
In the case of gramicidin s, in data set [3] (setting [8]), the Molar volume is 919.5 ± 5.0 cm^3.

B1: Neocarzinostatin (protein, UniProt P0A3R9 35-147, looked up)
Neocarzinostatin: AAPTATVTPSSGLSDGTVVKVAGAGLQAGTAYDVGQCAWVDTGVLACNPADFSSVTADANGSASTSLTVRRSFEGFLFDGTRWGTVDCTTAACQVGLSDAAGNGPEGVAISFN
modifications: enediyne chromophore
Regarding B1, in data set [3] (setting [8]), the Molar volume was 434.9 ± 5.0 cm^3.

B2: Pegfilgrastim (protein, UniProt P09919 31-207, looked up)
Granulocyte …: TPLGPASSLPQSFLLKCLEQVRKIQGDGAALQEKLVSECATYKLCHPEELVLLGHSLGIPWAPLSSCPSQALQLAGCLSQLHSGLFLYQGLLQALEGISPELGPTLDTLQLDVADFATTIWQQMEELGMAPALQPTQGAMPAFASAFQRRAGGVLVASHLQSFLEVSYRVLRHLAQP
modifications: N-terminal methionine; PEG
With B2, the Molar volume in [3] (Table 2, anticancer drugs) is 252.4 ± 3.0 cm^3.

These data come from patent US20240050950A1, “GRADIENT-BASED MICROFLUIDIC CIRCUIT, DEVICE, AND METHOD FOR PERFORMING AN ASSAY” (priority 2020, published 2024).
